Measured values reported in the NIST ThermoML archive (doi:10.1021/je200121f).
± gives the expanded uncertainty stated by the source.

What was measured:
[1] = xn = mol fraction of the nth substance listed; conditions: for surface tension liquid-gas: Ring tensiometer; for viscosity / speed of sound / mass density: 101 kPa, Liquid; for viscosity: Capillary tube (Ostwald / Ubbelohde) method; for speed of sound: Sing-around technique in a fixed-path interferometer; for mass density: Vibrating tube method
[2] = refractive index (Na D-line) (dimensionless); xn = mol fraction of the nth substance listed; conditions: 101 kPa, Liquid, Standard Abbe refractometry

CC(O)CNCC(C)O (stereo not given) [N-(2-hydroxypropyl)-2-hydroxy-1-propanamine] + CN1CCCC1=O
Conditions	mass density, [1] [kg/m3]	refractive index, [2]	speed of sound, [1] [m/s]	surface tension liquid-gas, [1] [mN/m]	viscosity, [1] [mPa·s]
293.15 K, x2 = 0.7804	1021.9 ± 0.5	1.4675 ± 0.0006	1535.6 ± 3	39.7 ± 0.6	4.857 ± 0.058
293.15 K, x2 = 0.8882	1026.8 ± 0.5	1.4682 ± 0.0006	1548.8 ± 2.9	41.3 ± 0.6	2.943 ± 0.039
303.15 K, x2 = 0.4695	1006 ± 0.6	1.4608 ± 0.0006	1483.8 ± 3.1	37.1 ± 0.6	20.25 ± 0.3
303.15 K, x2 = 0.5721	1007.3 ± 0.6	1.4616 ± 0.0006	1486.6 ± 3.1	37.6 ± 0.6	10.57 ± 0.18
303.15 K, x2 = 0.6754	1010.8 ± 0.5	1.4623 ± 0.0006	1494.7 ± 3	38.3 ± 0.6	6.229 ± 0.092
303.15 K, x2 = 0.7804	1013.4 ± 0.5	1.4635 ± 0.0006	1499.4 ± 3	39 ± 0.6	3.694 ± 0.049
303.15 K, x2 = 0.8882	1018.2 ± 0.5	1.4648 ± 0.0006	1511.9 ± 2.9	40 ± 0.6	2.371 ± 0.028
313.15 K, x2 = 0.2764	993.1 ± 0.7	1.4558 ± 0.0006	1443.5 ± 3.2	36 ± 0.6	38.27 ± 0.59
313.15 K, x2 = 0.3733	994.5 ± 0.7	1.4563 ± 0.0006	1445 ± 3.2	36.2 ± 0.6	21.14 ± 0.37
313.15 K, x2 = 0.4695	997.8 ± 0.6	1.4567 ± 0.0006	1450.8 ± 3.1	36.7 ± 0.6	11.24 ± 0.2
313.15 K, x2 = 0.5721	998.9 ± 0.6	1.4576 ± 0.0006	1453.3 ± 3.1	37.2 ± 0.6	7.051 ± 0.1
313.15 K, x2 = 0.6754	1002.3 ± 0.5	1.4582 ± 0.0006	1460.3 ± 3	37.9 ± 0.6	4.495 ± 0.061
313.15 K, x2 = 0.7804	1004.8 ± 0.5	1.4594 ± 0.0006	1463.7 ± 3	38.5 ± 0.6	2.89 ± 0.036
313.15 K, x2 = 0.8882	1009.4 ± 0.5	1.4607 ± 0.0006	1474.9 ± 2.9	39.5 ± 0.6	1.943 ± 0.022
323.15 K, x2 = 0	984.1 ± 0.9	1.4512 ± 0.0008	1420.3 ± 3.4	34.5 ± 0.6	125.73 ± 3.3
323.15 K, x2 = 0.1049	984 ± 0.8	1.451 ± 0.0007	1414.2 ± 3.3	34.9 ± 0.6	61.14 ± 1.4
323.15 K, x2 = 0.1898	984.4 ± 0.7	1.4511 ± 0.0007	1411.8 ± 3.2	35.1 ± 0.6	35.41 ± 0.65
323.15 K, x2 = 0.2764	985.1 ± 0.7	1.452 ± 0.0007	1412.2 ± 3.2	35.1 ± 0.6	20.93 ± 0.41
323.15 K, x2 = 0.3733	986.4 ± 0.6	1.4524 ± 0.0006	1413 ± 3.1	35.3 ± 0.6	12.67 ± 0.23
323.15 K, x2 = 0.4695	988.2 ± 0.6	1.4528 ± 0.0006	1415.4 ± 3.1	36 ± 0.6	7.412 ± 0.11
323.15 K, x2 = 0.5721	990.6 ± 0.6	1.4535 ± 0.0006	1419.6 ± 3.1	36.5 ± 0.6	5.022 ± 0.069
323.15 K, x2 = 0.6754	993.5 ± 0.5	1.4541 ± 0.0006	1424.3 ± 3	37.1 ± 0.6	3.42 ± 0.043
323.15 K, x2 = 0.7804	996.8 ± 0.5	1.4553 ± 0.0006	1428.6 ± 3	37.7 ± 0.6	2.33 ± 0.027
323.15 K, x2 = 0.8882	1000.7 ± 0.5	1.4565 ± 0.0006	1438.7 ± 2.9	38.7 ± 0.6	1.631 ± 0.018

C[C@H](O)CN [(2S)-1-amino-2-propanol] + CN1CCCC1=O
Conditions	mass density, [1] [kg/m3]	refractive index, [2]	speed of sound, [1] [m/s]	surface tension liquid-gas, [1] [mN/m]	viscosity, [1] [mPa·s]
293.15 K, x2 = 0	960.8 ± 0.8	1.448 ± 0.0007	1560.8 ± 3.4	37.6 ± 0.6	31.67 ± 0.46
293.15 K, x2 = 0.1034	968.2 ± 0.8	1.4503 ± 0.0007	1553.5 ± 3.3	38.1 ± 0.6	18.96 ± 0.32
293.15 K, x2 = 0.2008	975.3 ± 0.7	1.4523 ± 0.0007	1549.1 ± 3.3	38.5 ± 0.6	12.72 ± 0.19
293.15 K, x2 = 0.3001	982.8 ± 0.7	1.4545 ± 0.0007	1547.5 ± 3.2	39 ± 0.6	8.746 ± 0.13
293.15 K, x2 = 0.4002	989.5 ± 0.6	1.4567 ± 0.0006	1546 ± 3.2	39.5 ± 0.6	7.694 ± 0.094
293.15 K, x2 = 0.4978	996.5 ± 0.6	1.4585 ± 0.0006	1546.2 ± 3.1	40 ± 0.6	6.542 ± 0.077
293.15 K, x2 = 0.5943	1003.3 ± 0.6	1.4607 ± 0.0006	1547.4 ± 3.1	40.7 ± 0.6	5.578 ± 0.062
293.15 K, x2 = 0.7	1010.9 ± 0.5	1.4632 ± 0.0006	1550.9 ± 3	41.2 ± 0.6	4.249 ± 0.048
293.15 K, x2 = 0.7993	1018.1 ± 0.5	1.4655 ± 0.0006	1554.8 ± 3	41.5 ± 0.6	3.533 ± 0.037
293.15 K, x2 = 0.8913	1025 ± 0.5	1.4675 ± 0.0006	1559.4 ± 2.9	42.1 ± 0.6	3.098 ± 0.032
303.15 K, x2 = 0	952.8 ± 0.8	1.4442 ± 0.0007	1528.3 ± 3.4	36.9 ± 0.6	17.71 ± 0.29
303.15 K, x2 = 0.1034	960 ± 0.8	1.4464 ± 0.0007	1519.6 ± 3.3	37.3 ± 0.6	11.49 ± 0.19
303.15 K, x2 = 0.2008	966.9 ± 0.7	1.4484 ± 0.0007	1514.7 ± 3.3	37.8 ± 0.6	8.051 ± 0.12
303.15 K, x2 = 0.3001	974.2 ± 0.7	1.4505 ± 0.0007	1511.8 ± 3.2	38.3 ± 0.6	5.78 ± 0.082
303.15 K, x2 = 0.4002	980.8 ± 0.6	1.4527 ± 0.0006	1510 ± 3.1	38.8 ± 0.6	5.21 ± 0.068
303.15 K, x2 = 0.4978	987.7 ± 0.6	1.4547 ± 0.0006	1509.4 ± 3.1	39.2 ± 0.6	4.723 ± 0.058
303.15 K, x2 = 0.5943	994.5 ± 0.6	1.4567 ± 0.0006	1510.3 ± 3.1	39.5 ± 0.6	4.271 ± 0.049
303.15 K, x2 = 0.7	1002 ± 0.5	1.4591 ± 0.0006	1512.8 ± 3	40.1 ± 0.6	3.395 ± 0.038
303.15 K, x2 = 0.7993	1009.2 ± 0.5	1.4614 ± 0.0006	1516.8 ± 3	40.7 ± 0.6	2.909 ± 0.03
303.15 K, x2 = 0.8913	1016.1 ± 0.5	1.4635 ± 0.0006	1520.6 ± 2.9	41 ± 0.6	2.576 ± 0.028
313.15 K, x2 = 0	944.7 ± 0.8	1.4401 ± 0.0007	1495.7 ± 3.4	36.3 ± 0.6	10.65 ± 0.16
313.15 K, x2 = 0.1034	951.7 ± 0.8	1.4423 ± 0.0007	1486 ± 3.3	36.8 ± 0.6	7.301 ± 0.12
313.15 K, x2 = 0.2008	958.4 ± 0.7	1.4445 ± 0.0007	1480.5 ± 3.3	37.3 ± 0.6	5.308 ± 0.08
313.15 K, x2 = 0.3001	965.6 ± 0.7	1.4464 ± 0.0007	1476.6 ± 3.2	37.7 ± 0.6	4.045 ± 0.055
313.15 K, x2 = 0.4002	972.1 ± 0.6	1.4488 ± 0.0007	1474.8 ± 3.1	38.1 ± 0.6	3.725 ± 0.048
313.15 K, x2 = 0.4978	978.8 ± 0.6	1.4506 ± 0.0006	1472.8 ± 3.1	38.7 ± 0.6	3.448 ± 0.043
313.15 K, x2 = 0.5943	985.6 ± 0.6	1.4528 ± 0.0006	1473.5 ± 3.1	39 ± 0.6	3.375 ± 0.038
313.15 K, x2 = 0.7	993.1 ± 0.5	1.4548 ± 0.0006	1475.4 ± 3	39.5 ± 0.6	2.775 ± 0.03
313.15 K, x2 = 0.7993	1000.3 ± 0.5	1.4572 ± 0.0006	1479.1 ± 3	40.2 ± 0.6	2.458 ± 0.025
313.15 K, x2 = 0.8913	1007.2 ± 0.5	1.4594 ± 0.0006	1482.6 ± 2.9	40.4 ± 0.6	2.168 ± 0.023
323.15 K, x2 = 0	936.5 ± 0.8	1.436 ± 0.0007	1462.9 ± 3.4	35.9 ± 0.6	6.961 ± 0.11
323.15 K, x2 = 0.1034	943.2 ± 0.8	1.4382 ± 0.0007	1452.1 ± 3.3	36.2 ± 0.6	4.793 ± 0.077
323.15 K, x2 = 0.2008	949.8 ± 0.7	1.4401 ± 0.0007	1446 ± 3.2	36.6 ± 0.6	3.499 ± 0.053
323.15 K, x2 = 0.3001	956.9 ± 0.7	1.4421 ± 0.0007	1441.6 ± 3.2	37.1 ± 0.6	2.939 ± 0.039
323.15 K, x2 = 0.4002	963.3 ± 0.6	1.4442 ± 0.0007	1440.5 ± 3.1	37.6 ± 0.6	2.649 ± 0.036
323.15 K, x2 = 0.4978	969.9 ± 0.6	1.4464 ± 0.0007	1436.8 ± 3.1	38 ± 0.6	2.438 ± 0.031
323.15 K, x2 = 0.5943	976.7 ± 0.6	1.4482 ± 0.0007	1436.8 ± 3	38.4 ± 0.6	2.731 ± 0.033
323.15 K, x2 = 0.7	984.2 ± 0.5	1.4506 ± 0.0006	1438.4 ± 3	38.8 ± 0.6	2.317 ± 0.025
323.15 K, x2 = 0.7993	991.4 ± 0.5	1.4529 ± 0.0006	1441.7 ± 3	39.2 ± 0.6	2.073 ± 0.022
323.15 K, x2 = 0.8913	998.2 ± 0.5	1.4552 ± 0.0006	1445.1 ± 2.9	39.5 ± 0.6	1.861 ± 0.021
